Measurements: ChEMBL document CHEMBL4665869, “New thiazolopyrimidine as anticancer agents: Synthesis, biological evaluation, DNA binding, molecular modeling and ADMET study” (Bioorg Med Chem Lett, 2020)
≈ marks a conversion by molar mass, not a printed value.

Columns and labels:
[1] = system: LOX IMVI; assay: Growth inhibition of human LOX IMVI cells at 10 uM relative to control; assay type: functional; settings: read-out: GI
[2] = system: MDA-MB-468; assay: Growth inhibition of human MDA-MB-468 cells at 10 uM relative to control; assay type: functional; settings: read-out: GI
[3] = system: T47D; assay: Growth inhibition of human T47D cells at 10 uM relative to control; assay type: functional; settings: read-out: GI
[4] = system: CCRF-CEM; assay: Growth inhibition of human CCRF-CEM cells at 10 uM relative to control; assay type: functional; settings: read-out: GI
[5] = system: HL-60(TB); assay: Growth inhibition of human HL-60(TB) cells at 10 uM relative to control; assay type: functional; settings: read-out: GI
[6] = system: K562; assay: Growth inhibition of human K562 cells at 10 uM relative to control; assay type: functional; settings: read-out: GI
[7] = system: MOLT-4; assay: Growth inhibition of human MOLT-4 cells at 10 uM relative to control; assay type: functional; settings: read-out: GI
[8] = system: RPMI-8226; assay: Growth inhibition of human RPMI-8226 cells at 10 uM relative to control; assay type: functional; settings: read-out: GI
[9] = system: SR; assay: Growth inhibition of human SR cells at 10 uM relative to control; assay type: functional; settings: read-out: GI
[10] = system: A549; assay: Growth inhibition of human A549 cells at 10 uM relative to control; assay type: functional; settings: read-out: GI
[11] = system: HOP-62; assay: Growth inhibition of human HOP-62 cells at 10 uM relative to control; assay type: functional; settings: read-out: GI
[12] = system: HOP-92; assay: Growth inhibition of human HOP-92 cells at 10 uM relative to control; assay type: functional; settings: read-out: GI
[13] = system: NCI-H226; assay: Growth inhibition of human NCI-H226 cells at 10 uM relative to control; assay type: functional; settings: read-out: GI
[14] = system: NCI-H23; assay: Growth inhibition of human NCI-H23 cells at 10 uM relative to control; assay type: functional; settings: read-out: GI
[15] = system: NCI-H322M; assay: Growth inhibition of human NCI-H322M cells at 10 uM relative to control; assay type: functional; settings: read-out: GI
[16] = system: NCI-H460; assay: Growth inhibition of human NCI-H460 cells at 10 uM relative to control; assay type: functional; settings: read-out: GI
[17] = system: NCI-H522; assay: Growth inhibition of human NCI-H522 cells at 10 uM relative to control; assay type: functional; settings: read-out: GI
[18] = system: SW-620; assay: Growth inhibition of human SW-620 cells at 10 uM relative to control; assay type: functional; settings: read-out: GI
[19] = system: COLO 205; assay: Growth inhibition of human COLO 205 cells at 10 uM relative to control; assay type: functional; settings: read-out: GI
[20] = system: HCC 2998; assay: Growth inhibition of human HCC 2998 cells at 10 uM relative to control; assay type: functional; settings: read-out: GI
[21] = system: HCT-116; assay: Growth inhibition of human HCT-116 cells at 10 uM relative to control; assay type: functional; settings: read-out: GI
[22] = system: HCT-15; assay: Growth inhibition of human HCT-15 cells at 10 uM relative to control; assay type: functional; settings: read-out: GI
[23] = system: HT-29; assay: Growth inhibition of human HT-29 cells at 10 uM relative to control; assay type: functional; settings: read-out: GI
[24] = system: KM12; assay: Growth inhibition of human KM12 cells at 10 uM relative to control; assay type: functional; settings: read-out: GI
[25] = system: SF-268; assay: Growth inhibition of human SF-268 cells at 10 uM relative to control; assay type: functional; settings: read-out: GI
[26] = system: SF-295; assay: Growth inhibition of human SF-295 cells at 10 uM relative to control; assay type: functional; settings: read-out: GI
[27] = system: SF-539; assay: Growth inhibition of human SF-539 cells at 10 uM relative to control; assay type: functional; settings: read-out: GI
[28] = system: SNB-19; assay: Growth inhibition of human SNB-19 cells at 10 uM relative to control; assay type: functional; settings: read-out: GI
[29] = system: SNB-75; assay: Growth inhibition of human SNB-75 cells at 10 uM relative to control; assay type: functional; settings: read-out: GI
[30] = system: U-251; assay: Growth inhibition of human U-251 cells at 10 uM relative to control; assay type: functional; settings: read-out: GI
[31] = system: Malme-3M; assay: Growth inhibition of human Malme-3M cells at 10 uM relative to control; assay type: functional; settings: read-out: GI
[32] = system: M14; assay: Growth inhibition of human M14 cells at 10 uM relative to control; assay type: functional; settings: read-out: GI
[33] = system: MDA-MB-435; assay: Growth inhibition of human MDA-MB-435 cells at 10 uM relative to control; assay type: functional; settings: read-out: GI
[34] = system: SK-MEL-2; assay: Growth inhibition of human SK-MEL-2 cells at 10 uM relative to control; assay type: functional; settings: read-out: GI
[35] = system: SK-MEL-28; assay: Growth inhibition of human SK-MEL-28 cells at 10 uM relative to control; assay type: functional; settings: read-out: GI
[36] = system: SK-MEL-5; assay: Growth inhibition of human SK-MEL-5 cells at 10 uM relative to control; assay type: functional; settings: read-out: GI
[37] = system: UACC-257; assay: Growth inhibition of human UACC-257 cells at 10 uM relative to control; assay type: functional; settings: read-out: GI
[38] = system: UACC-62; assay: Growth inhibition of human UACC-62 cells at 10 uM relative to control; assay type: functional; settings: read-out: GI
[39] = system: IGROV-1; assay: Growth inhibition of human IGROV-1 cells at 10 uM relative to control; assay type: functional; settings: read-out: GI
[40] = system: OVCAR-4; assay: Growth inhibition of human OVCAR-4 cells at 10 uM relative to control; assay type: functional; settings: read-out: GI
[41] = system: OVCAR-5; assay: Growth inhibition of human OVCAR-5 cells at 10 uM relative to control; assay type: functional; settings: read-out: GI
[42] = system: OVCAR-8; assay: Growth inhibition of human OVCAR-8 cells at 10 uM relative to control; assay type: functional; settings: read-out: GI
[43] = system: NCI/ADR-RES; assay: Growth inhibition of human NCI/ADR-RES cells at 10 uM relative to control; assay type: functional; settings: read-out: GI
[44] = system: SK-OV-3; assay: Growth inhibition of human SK-OV-3 cells at 10 uM relative to control; assay type: functional; settings: read-out: GI
[45] = system: 786-0; assay: Growth inhibition of human 786-0 cells at 10 uM relative to control; assay type: functional; settings: read-out: GI
[46] = system: A498; assay: Growth inhibition of human A498 cells at 10 uM relative to control; assay type: functional; settings: read-out: GI
[47] = system: ACHN; assay: Growth inhibition of human ACHN cells at 10 uM relative to control; assay type: functional; settings: read-out: GI
[48] = system: CAKI-1; assay: Growth inhibition of human CAKI-1 cells at 10 uM relative to control; assay type: functional; settings: read-out: GI
[49] = system: RXF 393; assay: Growth inhibition of human RXF 393 cells at 10 uM relative to control; assay type: functional; settings: read-out: GI
[50] = system: SN12C; assay: Growth inhibition of human SN12C cells at 10 uM relative to control; assay type: functional; settings: read-out: GI
[51] = system: TK-10; assay: Growth inhibition of human TK-10 cells at 10 uM relative to control; assay type: functional; settings: read-out: GI
[52] = system: UO-31; assay: Growth inhibition of human UO-31 cells at 10 uM relative to control; assay type: functional; settings: read-out: GI
[53] = system: PC-3; assay: Growth inhibition of human PC-3 cells at 10 uM relative to control; assay type: functional; settings: read-out: GI
[54] = system: DU-145; assay: Growth inhibition of human DU-145 cells at 10 uM relative to control; assay type: functional; settings: read-out: GI
[55] = system: MCF7; assay: Growth inhibition of human MCF7 cells at 10 uM relative to control; assay type: functional; settings: read-out: GI
[56] = system: MDA-MB-231; assay: Growth inhibition of human MDA-MB-231 cells at 10 uM relative to control; assay type: functional; settings: read-out: GI
[57] = system: Hs-578T; assay: Growth inhibition of human Hs-578T cells at 10 uM relative to control; assay type: functional; settings: read-out: GI
[58] = system: BT-549; assay: Growth inhibition of human BT-549 cells at 10 uM relative to control; assay type: functional; settings: read-out: GI
[59] = target: DNA; assay: Displacement of methyl green from DNA (unknown origin) assessed as DNA intercalation after 24 hrs by colorimetric assay; assay type: nucleic-acid assay

In the case of `CC1=CN2C(=NC(/C=C/c3ccc(C)cc3)=CC2c2ccc(C)cc2)S1` (centres undefined), the inhibition of growth at 10 µM [1] is reported as < 10%, the inhibition of growth at 10 µM [2] is reported as 11.3% and the inhibition of growth at 10 µM [3] is reported as < 10%. The inhibition of growth at 10 µM [4] was < 10%, the inhibition of growth at 10 µM [5] was < 10% and the inhibition of growth at 10 µM [6] was < 10%. For the same molecule, the inhibition of growth at 10 µM [7] was 12.6%, the inhibition of growth at 10 µM [8] was < 10% and the inhibition of growth at 10 µM [9] was < 10%. The inhibition of growth at 10 µM [10] was < 10%, the inhibition of growth at 10 µM [11] was < 10% and the inhibition of growth at 10 µM [12] was < 10%. The inhibition of growth at 10 µM [13] was < 10%, the inhibition of growth at 10 µM [14] was < 10% and the inhibition of growth at 10 µM [15] was < 10%. The inhibition of growth at 10 µM [16] was < 10%, the inhibition of growth at 10 µM [17] was 10.9% and the inhibition of growth at 10 µM [18] was < 10%. The inhibition of growth at 10 µM [19] was < 10%, the inhibition of growth at 10 µM [20] was < 10% and the inhibition of growth at 10 µM [21] was < 10%. For the same molecule, the inhibition of growth at 10 µM [22] was < 10%, the inhibition of growth at 10 µM [23] was < 10% and the inhibition of growth at 10 µM [24] was < 10%. The inhibition of growth at 10 µM [25] was < 10%, the inhibition of growth at 10 µM [26] was < 10% and the inhibition of growth at 10 µM [27] was < 10%. For the same molecule, the inhibition of growth at 10 µM [28] was < 10%, the inhibition of growth at 10 µM [29] was 13.7% and the inhibition of growth at 10 µM [30] was < 10%. The inhibition of growth at 10 µM [31] was < 10%, the inhibition of growth at 10 µM [32] was < 10% and the inhibition of growth at 10 µM [33] was < 10%. The inhibition of growth at 10 µM [34] was < 10%, the inhibition of growth at 10 µM [35] was < 10% and the inhibition of growth at 10 µM [36] was < 10%. The inhibition of growth at 10 µM [37] was < 10%, the inhibition of growth at 10 µM [38] was < 10% and the inhibition of growth at 10 µM [39] was < 10%. The inhibition of growth at 10 µM [40] was < 10%, the inhibition of growth at 10 µM [41] was < 10% and the inhibition of growth at 10 µM [42] was < 10%. The inhibition of growth at 10 µM [43] was < 10%, the inhibition of growth at 10 µM [44] was < 10% and the inhibition of growth at 10 µM [45] was < 10%. For the same molecule, the inhibition of growth at 10 µM [46] was < 10%, the inhibition of growth at 10 µM [47] was < 10% and the inhibition of growth at 10 µM [48] was < 10%. The inhibition of growth at 10 µM [49] was < 10%, the inhibition of growth at 10 µM [50] was < 10% and the inhibition of growth at 10 µM [51] was < 10%. The inhibition of growth at 10 µM [52] was 19.1%, the inhibition of growth at 10 µM [53] was < 10% and the inhibition of growth at 10 µM [54] was < 10%. The inhibition of growth at 10 µM [55] was < 10%, the inhibition of growth at 10 µM [56] was < 10% and the inhibition of growth at 10 µM [57] was < 10%. For the same molecule, the inhibition of growth at 10 µM [58] was < 10% and the IC50 [59] was 87.57 µg/mL (≈ 244 µM).
